Assay results reported in ChEMBL document CHEMBL3872232, “2-Azetidinones: Synthesis and biological evaluation as potential anti-breast cancer agents” (Eur J Med Chem, 2016).
Activity calls are given as the source filed them. The calls are words filed in the database; no cut-off is given here.

Assays:
MDA-MB-231 [1] = assay: Effect on p53 gene expression in human MDA-MB-231 cells assessed as ratio of p53 to beta-actin expression level at 5 uM after 24 hrs by RT-PCR method (reference value: 0.22); assay type: functional
MDA-MB-231 [2] = assay: Effect on p21 mRNA expression in human MDA-MB-231 cells assessed as ratio of p21 to GAPDH expression level at 5 uM after 24 hrs by RT-PCR method (reference value: 0.02); assay type: functional
MDA-MB-231 [3] = assay: Induction of apoptosis in human MDA-MB-231 cells assessed as early apoptotic cells at 5 uM after 24 hrs by Annexin V-FITC/propidium iodide staining based flow cytometry (reference value: 0.5%); assay type: functional
MDA-MB-231 [4] = assay: Induction of apoptosis in human MDA-MB-231 cells assessed as late apoptotic cells at 5 uM after 24 hrs by Annexin V-FITC/propidium iodide staining based flow cytometry (reference value: 1.8%); assay type: functional
Homo sapiens [5] = species: Homo sapiens; assay: Inhibition of Akt in human MDA-MB-231 cells assessed as ratio of phosphorylated Akt to GAPDH expression level at 10 uM after 48 hrs by immunoblot analysis (reference value: 0.33 to 0.81); assay type: cell-based
MDA-MB-231 [6] = assay: Inhibition of Akt in human MDA-MB-231 cells after 48 hrs by ELISA; assay type: cell-based
MDA-MB-231 [7] = assay: Ratio of Bcl-2 to Bax gene expression in human MDA-MB-231 cells at 5 uM after 24 hrs by RT-PCR method (reference value: 0.03); assay type: functional
MCF7 [8] = assay: Induction of apoptosis in human MCF7 cells assessed as necrotic cells at 5 uM after 24 hrs by Annexin V-FITC/propidium iodide staining based flow cytometry (reference value: 3.7%); assay type: functional
MDA-MB-231 [9] = assay: Effect on Cdk6 mRNA expression in human MDA-MB-231 cells assessed as ratio of Cdk6 to GAPDH expression level at 5 uM after 24 hrs by RT-PCR method (reference value: 1.37); assay type: functional
Homo sapiens [10] = species: Homo sapiens; assay: Inhibition of Akt in human MDA-MB-231 cells assessed as ratio of phosphorylated GSK-3beta to GAPDH expression level at 5 uM after 48 hrs by immunoblot analysis (reference value: 0.14 to 1.50); assay type: cell-based
MCF7 [11] = assay: Induction of apoptosis in human MCF7 cells assessed as early apoptotic cells at 5 uM after 24 hrs by Annexin V-FITC/propidium iodide staining based flow cytometry (reference value: 1.6%); assay type: functional
[12] = Cell cycle arrest in human MDA-MB-231 cells assessed as increase in cell accumulation at sub-G1 phase at 5 uM after 24 hrs by propidium iodide staining based flow cytometry; assay type: functional
[13] = Antiproliferative activity against human MDA-MB-231 cells after 48 hrs by MTT assay; assay type: functional, cell-based; settings: MDA-MB-231, 48 h
[14] = Cell cycle arrest in human MCF7 cells assessed as accumulation at G0/G1 phase at 5 uM after 24 hrs by propidium iodide staining based flow cytometry (reference value: 83.25%); assay type: functional
MDA-MB-231 [15] = assay: Induction of apoptosis in human MDA-MB-231 cells assessed as necrotic cells at 5 uM after 24 hrs by Annexin V-FITC/propidium iodide staining based flow cytometry (reference value: 1.3%); assay type: functional
MCF7 [16] = assay: Inhibition of Akt in human MCF7 cells assessed as GSK-3beta phosphorylation reduction in after 48 hrs by immunoblot analysis; assay type: cell-based
MCF7 [17] = assay: Induction of apoptosis in human MCF7 cells assessed as increase in necrotic cells at 5 uM after 24 hrs by Annexin V-FITC/propidium iodide staining based flow cytometry relative to colchicine; assay type: functional
Homo sapiens [18] = species: Homo sapiens; assay: Inhibition of Akt in human MDA-MB-231 cells assessed as ratio of phosphorylated Akt to GAPDH expression level at 5 uM after 48 hrs by immunoblot analysis (reference value: 0.33 to 0.81); assay type: cell-based
[19] = Cell cycle arrest in human MCF7 cells assessed as accumulation at sub-G1 phase at 5 uM after 24 hrs by propidium iodide staining based flow cytometry (reference value: 3.58%); assay type: functional
[20] = Cell cycle arrest in human MCF7 cells assessed as accumulation at G2/M phase at 5 uM after 24 hrs by propidium iodide staining based flow cytometry (reference value: 9.29%); assay type: functional
MCF7 [21] = assay: Inhibition of Akt phosphorylation in human MCF7 cells after 48 hrs by immunoblot analysis; assay type: cell-based
MCF7 [22] = assay: Induction of apoptosis in human MCF7 cells assessed as late apoptotic cells at 5 uM after 24 hrs by Annexin V-FITC/propidium iodide staining based flow cytometry (reference value: 2.3%); assay type: functional
[23] = Antiproliferative activity against human mammary epithelial cells after 48 hrs by MTT assay; assay type: cell-based, Epithelial cell; settings: Homo sapiens, Epithelial cell, 48 h; read-out: IC50
MDA-MB-231 [24] = assay: Effect on cyclin E mRNA expression in human MDA-MB-231 cells assessed as ratio of cyclin E to GAPDH expression level at 5 uM after 24 hrs by RT-PCR method (reference value: 0.13); assay type: functional
MDA-MB-231 [25] = assay: Inhibition of Akt in human MDA-MB-231 cells assessed as reduction in GSK-3beta phosphorylation after 48 hrs by immunoblot analysis; assay type: cell-based
Homo sapiens [26] = species: Homo sapiens; assay: Inhibition of Akt in human MDA-MB-231 cells assessed as ratio of phosphorylated Akt to GAPDH expression level at 2 uM after 48 hrs by immunoblot analysis (reference value: 0.33 to 0.81); assay type: cell-based
MDA-MB-231 [27] = assay: Effect on cyclin D1 mRNA expression in human MDA-MB-231 cells assessed as ratio of cyclin D1 to GAPDH expression level at 5 uM after 24 hrs by RT-PCR method (reference value: 0.71); assay type: functional
MDA-MB-231 [28] = assay: Effect on p27 mRNA expression in human MDA-MB-231 cells assessed as ratio of p27 to GAPDH expression level at 5 uM after 24 hrs by RT-PCR method (reference value: 0.23); assay type: functional
Homo sapiens [29] = species: Homo sapiens; assay: Inhibition of Akt in human MDA-MB-231 cells assessed as ratio of phosphorylated GSK-3beta to GAPDH expression level at 10 uM after 48 hrs by immunoblot analysis (reference value: 0.14 to 1.50); assay type: cell-based
MDA-MB-231 [30] = assay: Effect on Cdk2 mRNA expression in human MDA-MB-231 cells assessed as ratio of Cdk2 to GAPDH expression level at 5 uM after 24 hrs by RT-PCR method (reference value: 0.26); assay type: functional
Homo sapiens [31] = species: Homo sapiens; assay: Inhibition of Akt in human MDA-MB-231 cells assessed as ratio of phosphorylated GSK-3beta to GAPDH expression level at 2 uM after 48 hrs by immunoblot analysis (reference value: 0.14 to 1.50); assay type: cell-based
[32] = Antiproliferative activity against human MCF7 cells after 48 hrs by MTT assay; assay type: functional, cell-based; settings: MCF7, 48 h
MDA-MB-231 [33] = assay: Effect on Bid gene expression in human MDA-MB-231 cells assessed as ratio of Bid to beta-actin expression level at 5 uM after 24 hrs by RT-PCR method (reference value: 0.17); assay type: functional
[34] = Safety index, ratio of compound IC50 to colchicine IC50 for human mammary epithelial cells; assay type: ADME, cell-based, Epithelial cell; settings: read-out: Ratio IC50
[35] = Cell cycle arrest in human MCF7 cells assessed as accumulation at S phase at 5 uM after 24 hrs by propidium iodide staining based flow cytometry (reference value: 4.23%); assay type: functional
MDA-MB-231 [36] = assay: Inhibition of Akt phosphorylation in human MDA-MB-231 cells after 48 hrs by immunoblot analysis; assay type: cell-based
[37] = Cell cycle arrest in human MDA-MB-231 cells assessed as increase in cell accumulation at G2/M phase at 5 uM after 24 hrs by propidium iodide staining based flow cytometry; assay type: functional

SMILES | Ratio (MDA-MB-231 [1]) | Ratio (MDA-MB-231 [2]) | Activity (MDA-MB-231 [3]) | Activity (MDA-MB-231 [4]) | Ratio (MDA-MB-231 [7]) | Activity (MCF7 [8]) | Ratio (MDA-MB-231 [9]) | Ratio (Homo sapiens [10]) | Activity (MCF7 [11]) | IC50 [13] | Activity [14] | Activity (MDA-MB-231 [15]) | Ratio (Homo sapiens [18]) | Activity [19] | Activity [20] | Activity (MCF7 [22]) | IC50 [23] | Ratio (MDA-MB-231 [24]) | Ratio (MDA-MB-231 [27]) | Ratio (MDA-MB-231 [28]) | other results
CCOC(=O)/C(=C/c1ccccc1)CN1C(=O)[C@@H](OC)[C@H]1c1ccccc1Br | 0.25 | 0.03 | 2.2% | 5.4% | 0.01 | 13.1% | 0.19 | 0.61 | 4% | 6.86 µM | 71.2% | 0.9% | 0.03 | 12.9% | 9.11% | 6.7% | 66.6 µM | 0.03 | 0.47 | 0.41 | Ratio (Homo sapiens [5]): 0.01; inhibition (MDA-MB-231 [6]): Dose-dependent effect; Activity [12]: Active; inhibition (MCF7 [16]): Dose-dependent effect; fold change (FC) (MCF7 [17]): 2; inhibition (MCF7 [21]): Dose-dependent effect; inhibition (MDA-MB-231 [25]): Dose-dependent effect; Ratio (Homo sapiens [26]): 0.16; Ratio (Homo sapiens [29]): 0.58; Ratio (MDA-MB-231 [30]): 0.18; Ratio (Homo sapiens [31]): 1.16; IC50 [32]: 5.79 µM; Ratio (MDA-MB-231 [33]): 0.56; selectivity ratio [34]: 10; Activity [35]: 5.17%; inhibition (MDA-MB-231 [36]): Dose-dependent effect
COc1cc2c(c(OC)c1OC)-c1ccc(OC)c(=O)cc1[C@@H](NC(C)=O)CC2 [COLCHICINE] | 0.3 | 0.6 | 2.3% | 5.8% | 0.1 | 6.5% | 1.56 | 0.12 to 1.45 | 1% | 3.55 µM | 66.2% | 0.9% | 0.23 to 0.44 | 7.4% | 16.2% | 1.8% | 9.26 µM | 0.19 | 1.5 | 0.6 | Activity [37]: Active; Ratio (MDA-MB-231 [30]): 0.39; IC50 [32]: 0.072 µM; Ratio (MDA-MB-231 [33]): 0.42; Activity [35]: 10.3%
